Measured values taken from ChEMBL document CHEMBL1136669, “Synthesis of aza and oxaglutamyl-p-nitroanilide derivatives and their kinetic studies with gamma-glutamyltranspeptidase” (Bioorg Med Chem Lett, 2003).

Target: Glutathione hydrolase 1 proenzyme (Rattus norvegicus, UniProt P07314)
Experiment: Compound was tested for the competitive inhibition of rat kidney gamma-glutamyltranspeptidase (gamma-GGT)

Glutathione hydrolase 1 proenzyme, sequence (P07314 1-379 limits assumed): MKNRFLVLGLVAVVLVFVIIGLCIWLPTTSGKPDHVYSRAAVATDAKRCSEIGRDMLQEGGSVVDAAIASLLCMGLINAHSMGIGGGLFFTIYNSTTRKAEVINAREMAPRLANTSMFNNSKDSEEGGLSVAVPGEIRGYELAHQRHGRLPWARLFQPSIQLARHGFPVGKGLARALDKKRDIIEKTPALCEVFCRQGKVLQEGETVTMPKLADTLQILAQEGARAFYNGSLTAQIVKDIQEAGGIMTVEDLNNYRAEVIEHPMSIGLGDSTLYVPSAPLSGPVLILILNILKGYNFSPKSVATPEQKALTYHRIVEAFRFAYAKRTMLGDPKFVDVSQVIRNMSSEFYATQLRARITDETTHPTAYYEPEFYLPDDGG
Glutathione hydrolase 1 proenzyme, sequence (P07314 380-568 limits assumed): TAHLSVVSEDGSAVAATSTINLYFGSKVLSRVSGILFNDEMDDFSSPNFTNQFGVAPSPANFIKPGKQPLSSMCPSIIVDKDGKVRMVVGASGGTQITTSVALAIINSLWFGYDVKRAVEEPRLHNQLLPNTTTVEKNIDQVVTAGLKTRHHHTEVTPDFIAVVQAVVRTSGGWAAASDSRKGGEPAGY

Cl.N[C@@H](CNC(=O)Nc1ccc([N+](=O)[O-])cc1)C(=O)O
Ki comp: 3.8 mM
